{"source": "patent US7510825B2", "about": "“Kits and methods for detection of apoptotic cells” (NST NeuroSurvival Technologies Ltd, priority 2000, dated 2009)", "key": {"[1]": {"system": "renal tubular cells, ischemic kidney", "test": "Renal cell injury (ischemia-reperfusion) detection by DDC", "format": "in vivo, rats", "procedure": "A. Administration of DDC in-vivo: Injection of 200 μl of DDC intravenously. Following 1-2 hours, animal is sacrificed, and the desired organ is placed in a test tube or on a small plate, suitable for liquid nitrogen freezing. The plate is then covered with an aluminum foil, and transferred to liquid nitrogen. Following 5-30 minutes the specimen is being frozen to −80° C. and kept at −80° C. for at least 16 hr. B. Analysis of the Specimen: • a. Whole organ imaging Ex-vivo whole organ fluorescence imaging may be carried out on freshly excised specimen, that can be analyzed under a stereomicroscope (such as Leica MZ FL III, Leica Switzerland). DDC may be visualized using 360cx and >420cm nm filter set. Emitted fluorescence can be imaged using appropriate camera and software, such as a Leica DC 300F Distal camera and images can be processed and analyzed by Leica QWin Lite software. • b. Histological analysis, from the frozen organ or tissue, 4 μm cryosections are prepared on slides. Analysis of the tissue sections can be performed using a fluorescence microscope with a UV filter characterized by excitation at 360-370 nm (band pass) and emission at 420 nm (barrier filter) In case that staining of the examined tissue is desired, the following procedures can be applied: […]"}, "[2]": {"system": "C26 colon carcinoma cells", "test": "Staining by DDC of C26 colon carcinoma cells treated with BiCNU, fluorescent microscopy", "format": "cell-based", "procedure": "For microscopic analysis the concentration of cells should be within 1-2×10^7/ml. […] If fixation is needed, it should be performed after DDC staining. • 1. Adjusting the cells to 1-2×10^7/ml in buffer. • 2. Transferring 96 μl from the cell suspension to an eppendorf and staining the cells by adding 4 μl from the DDC solution. Incubating for 10-40 minutes at RT protected from light. • 3. A double labeling could be conducted with PI, if desired. In such a case, 1 μl is added from the PI solution. • 4, Placing the cell suspension on a glass slide. Covering the cells with a glass coverslip. Alternatively, for analyzing adherent cells, cells may grow directly on coverslip. Staining the cells by incubation with DDC (4 μl of DDC/96 μl buffer reaction) or 10-40 minutes and PI (1 μl). Covering the slide with a coverslip and visualizing the cells. […] Observing the cells under fluorescent or confocal microscope equipped with the appropriate UV filter (excitation at 360-370 nm, band pass, and emission at 420 nm, barrier filter. Using a Triple filter (Hoechst/FITC/Texas Red) allows concomitant observation of both DDC and PI. Quantitative Assay for DDC Accumulation using Fluorescene Spectroscopy\n26 colon carcinoma cells were treated with 0.5 mM BiCNU for 2 hr and stained with DDC (as detailed in the DDC protocols IIIC). Cells were analyzed by fluorescent microscope under a UV filter."}, "[3]": {"system": "neuronal cells of the injured brain area", "test": "Detection by DDC of apoptosis following traumatic brain injury (TBI)", "format": "in vivo, mice", "conditions": "DDC 24 hr after traumatic injury, brain excised after 2 hr", "procedure": "A. Administration of DDC in-vivo: Injection of 200 μl of DDC intravenously. Following 1-2 hours, animal is sacrificed, and the desired organ is placed in a test tube or on a small plate, suitable for liquid nitrogen freezing. The plate is then covered with an aluminum foil, and transferred to liquid nitrogen. Following 5-30 minutes the specimen is being frozen to −80° C. and kept at −80° C. for at least 16 hr. B. Analysis of the Specimen: • a. Whole organ imaging Ex-vivo whole organ fluorescence imaging may be carried out on freshly excised specimen, that can be analyzed under a stereomicroscope (such as Leica MZ FL III, Leica Switzerland). DDC may be visualized using 360cx and >420cm nm filter set. Emitted fluorescence can be imaged using appropriate camera and software, such as a Leica DC 300F Distal camera and images can be processed and analyzed by Leica QWin Lite software. • b. Histological analysis, from the frozen organ or tissue, 4 μm cryosections are prepared on slides. Analysis of the tissue sections can be performed using a fluorescence microscope with a UV filter characterized by excitation at 360-370 nm (band pass) and emission at 420 nm (barrier filter) In case that staining of the examined tissue is desired, the following procedures can be applied:\nTBI model was performed on Balb/C, 8-9 weeks old, according to the protocol detailed in Yun Chen et al., 1996. […]"}, "[4]": {"system": "L5178-S murine lymphoma tumors", "test": "Quantification of DDC uptake into lymphoma tumor after radiotherapy", "format": "in vivo, mice", "conditions": "DDC for 2 hours", "procedure": "Extraction of DDC uptake compound from cytosolic extracts of organs or tissues for quantitative measurement of DDC uptake: • a. Excising the relevant organ from animals, that were previously injected with DDC. • b. Weighting the organs and homogenize using tissue homogenizer in a cold Buffer-Hepes • c. Following total homogenization, centrifuging the sample at 13,800 rpm for 20 min at 4° C. and transferring the supernatant to a new test tube. • d. Repeating step c and taking the supernatant for quantitative fluorescence evaluation. Alternatively, the supernatant can be stored at −80° C. until use. • e. Placing a sample of 100 ul of organ suspension into each of three wells of a black to microtiter plate. • f. Measuring the fluorescence intensity of DDC (excitation 360 nm, emission 535 nm) using a fluorescence plate reader.\nCreating a calibration curve for the fluorescence plate reader using serial dilution of the DDC compound: 1:10, 1:20, 1:40, 1:80, 1:160, 1:320, 1:640, 1:1280.\nMurine lymphoma model was established using DBA/2 mice injected subcutaneously with L5178-S murine lymphoma cells. Tumor treatment, by multiply fractionated X-irradiation (3 fractions of 6 Gy/day), started when the tumor reached in diameter 6-8 mm (approximately ten days after tumor implantation). At different time points (24, 48 or 72 hours) following irradiation, mice were injected with DDC for 2 hours. Tumors were harvested from control and radiation-treated animals and processed for quantitative analysis of DDC uptake into the tumor."}, "[5]": {"system": "C26 colon carcinoma cells", "test": "Time course of DDC binding to C26 colon carcinoma cells treated with BiCNU", "format": "cell-based", "conditions": "0.5 mM BiCNU for 2 hr", "procedure": "For microscopic analysis the concentration of cells should be within 1-2×10^7/ml. […] If fixation is needed, it should be performed after DDC staining. • 1. Adjusting the cells to 1-2×10^7/ml in buffer. • 2. Transferring 96 μl from the cell suspension to an eppendorf and staining the cells by adding 4 μl from the DDC solution. Incubating for 10-40 minutes at RT protected from light. • 3. A double labeling could be conducted with PI, if desired. In such a case, 1 μl is added from the PI solution. • 4, Placing the cell suspension on a glass slide. Covering the cells with a glass coverslip. Alternatively, for analyzing adherent cells, cells may grow directly on coverslip. Staining the cells by incubation with DDC (4 μl of DDC/96 μl buffer reaction) or 10-40 minutes and PI (1 μl). Covering the slide with a coverslip and visualizing the cells. If desired, at that point the cells can be washed and fixed in 1% formaldehyde before visualization. Mounting should be done in a solution of 50% glycerol/PBS (v/v). • 5. Observing the cells under fluorescent or confocal microscope equipped with the appropriate UV filter (excitation at 360-370 nm, band pass, and emission at 420 nm, barrier filter. Using a Triple filter (Hoechst/FITC/Texas Red) allows concomitant observation of both DDC and PI. Quantitative Assay for DDC Accumulation using Fluorescene Spectroscopy […]"}}}
{"smiles": "CN(C)c1cccc2c(S(=O)(=O)NC(CSSCC(NS(=O)(=O)c3cccc4c(N(C)C)cccc34)C(=O)O)C(=O)O)cccc12", "note": "(stereo not drawn) [DDC]", "values": [{"measurement": "DDC uptake, ischemic kidney compared with control kidney", "setting": "[1]; 45 min renal artery clamping, DDC 20 h after reperfusion, ex-vivo whole organ fluorescence imaging", "result": "Significant increase in DDC uptake"}, {"measurement": "DDC staining versus TUNEL staining", "setting": "[1]; kidney sections after ischemia-reperfusion", "result": "Several cells were stained with DDC but were negative for TUNEL staining"}, {"measurement": "stained cells in culture", "setting": "[2]; 0.5 mM BiCNU for 2 hr", "result": "marked increase in the number of the stained cells"}, {"measurement": "stained cells in culture", "setting": "[2]; control culture", "result": "small percentage of stained cells"}, {"measurement": "correlation of DDC staining with H&E staining", "setting": "[3]", "result": "correlated with H&E staining"}, {"measurement": "DDC uptake into the tumor, times higher over the control mean values", "setting": "[4]; 24 hours following X-irradiation (3 fractions of 6 Gy/day)", "result": 3.68, "unit": "times"}, {"measurement": "DDC uptake into the tumor, times higher over the control mean values", "setting": "[4]; 48 hours following X-irradiation (3 fractions of 6 Gy/day)", "result": 4.69, "unit": "times"}, {"measurement": "DDC uptake into the tumor, times higher over the control mean values", "setting": "[4]; 72 hours following X-irradiation (3 fractions of 6 Gy/day)", "result": 6.74, "unit": "times"}, {"measurement": "time to staining of apoptotic cells", "setting": "[5]", "result": "≤ 40", "unit": "s"}]}
